Literature values in patent US20090117076A1, “Methods For Treating Tumor Cells” (priority 2007, published 2009).
Counter-ions that a name gives are not always drawn. Like-named read-outs stand apart in the source and are kept apart here.

Experiments:
GIST = settings: for Median time to progression, historical value: single agent imatinib
[1] = primates

For `Cc1ccc(NC(=O)c2ccc(CN3CCN(C)CC3)cc2)cc1Nc1nccc(-c2cccnc2)n1` [imatinib, imatinib mesylate], the “Overall response rate of tumor necrosis/apoptosis” value (GIST; human, in vivo) is given as 69%, the “Median time to progression, historical value” (GIST; subgroup with KIT exon 11 mutation) is given as 687 days and the “Median time to progression, historical value” (GIST; subgroup without KIT exon 11 mutation) is given as 200 days.

In the case of interferon α-2b, the Abortifacient effect [1] is listed as “abortifacient”.
